These results are taken from patent US11524966B1 (Valo Early Discovery, Inc., priority 2017, dated 2022).

This assay concerns the target T1, USP28 (USP28-5(1-1077)-TEV-6*His; LifeSensors) (Homo sapiens, UniProt Q96RU2).
T1 construct: construct USP28 (USP28-5(1-1077)-TEV-6*His; LifeSensors); TEV cleavage site (C); 6xHis (C); purchased LifeSensors
T1 sequence (Q96RU2 1-1077): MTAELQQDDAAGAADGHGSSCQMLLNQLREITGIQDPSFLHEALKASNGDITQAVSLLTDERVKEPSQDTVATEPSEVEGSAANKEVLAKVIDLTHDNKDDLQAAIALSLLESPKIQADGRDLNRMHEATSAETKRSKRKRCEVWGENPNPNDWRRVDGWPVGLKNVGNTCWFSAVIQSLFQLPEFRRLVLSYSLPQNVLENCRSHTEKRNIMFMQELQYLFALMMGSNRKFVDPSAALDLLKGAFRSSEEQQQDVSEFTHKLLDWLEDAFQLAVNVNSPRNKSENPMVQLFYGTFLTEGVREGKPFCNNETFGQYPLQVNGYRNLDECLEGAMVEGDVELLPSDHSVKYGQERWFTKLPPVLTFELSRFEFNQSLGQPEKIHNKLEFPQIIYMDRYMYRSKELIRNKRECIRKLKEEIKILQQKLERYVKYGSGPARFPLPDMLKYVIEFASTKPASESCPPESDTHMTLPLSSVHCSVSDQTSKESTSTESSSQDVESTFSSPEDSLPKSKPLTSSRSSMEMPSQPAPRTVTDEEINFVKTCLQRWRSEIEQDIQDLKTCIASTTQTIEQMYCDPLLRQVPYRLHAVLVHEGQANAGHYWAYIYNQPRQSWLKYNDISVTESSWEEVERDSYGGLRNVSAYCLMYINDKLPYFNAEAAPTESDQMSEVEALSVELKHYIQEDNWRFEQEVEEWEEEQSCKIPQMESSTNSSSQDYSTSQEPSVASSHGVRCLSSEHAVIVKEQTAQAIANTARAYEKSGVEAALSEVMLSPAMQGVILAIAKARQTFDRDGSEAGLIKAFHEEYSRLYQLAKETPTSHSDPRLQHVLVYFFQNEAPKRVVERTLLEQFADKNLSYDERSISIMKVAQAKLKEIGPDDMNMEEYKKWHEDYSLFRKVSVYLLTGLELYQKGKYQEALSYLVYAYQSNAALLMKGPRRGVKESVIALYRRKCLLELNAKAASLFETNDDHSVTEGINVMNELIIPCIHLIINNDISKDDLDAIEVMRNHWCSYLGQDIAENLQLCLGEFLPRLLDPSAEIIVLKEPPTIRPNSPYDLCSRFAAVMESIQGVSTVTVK
The assay can be described thus: Ubiquitin-Rhodamine 110 Assay for USP28 Activity, Example A-1(b). To be noted: Ub-Rh110 assay, Example A-1(b). It counts as biochemical. How it is done: Example A-1(b): Biochemical Assay: Ubiquitin-Rhodamine 110 Assay for USP28 Activity
Each assay was performed in a final volume of 20 μL in assay buffer containing 20 mM Tris-HCl (pH 8.0, (1M Tris-HCl, pH 8.0 solution; Corning 46-031-CM)), 2 mM CaCl2) (1M Calcium Chloride solution; Sigma #21114) 2 mM BME (2-Mercaptoethanol; Sigma 63689-25ML-F), 0.01% Prionex ([…] filtered, Sigma #G-0411), and 0.01% Triton X-100. Stock compound solutions were stored at −20° C. as 10 mM in DMSO. Up to 1 month prior to the assay, 2 mM test compounds were pre-dispensed into assay plates (Black, low volume; Corning #3820) and frozen at −20° C. Prestamped assay plates were allowed to come to room temperature on the day of the assay. For the screen, 100 nL of 2 mM was pre-dispensed for a final screening concentration of 10 μM (DMSO(fc)=0.5%). […] Plates were incubated stacked for 90 minutes at room temperature before fluorescence was read on the Envision (Excitation at 485 nm and Emission at 535 nm; Perkin Elmer) or on the PheraSTAR (Excitation at 485 nm and Emission at 535 nm; BMG Labtech).
For follow-up studies, each assay was performed in a final volume of 15 μL in assay buffer containing 20 mM Tris-HCl (pH 8.0, (1M Tris-HCl, pH 8.0 solution; Corning 46-031-CM)), 3 mM BME (2-Mercaptoethanol; Sigma 63689-25ML-F), 0.03% BGG (0.22 μM filtered, Sigma, G7516-25G), and 0.01% Triton X-100 (Sigma, T9284-10L). Nanoliter quantities of either an 8-point or 10-point, 3-fold serial dilution in DMSO was pre-dispensed into assay plates (Perkin Elmer, ProxiPlate-384 F Plus, #) for a final test concentration of either 25 μM to 11 nM or 25 μM to 1.3 nM, respectively. Enzyme USP28, construct USP28 (USP28-5(1-1077)-TEV-6*His; LifeSensors) concentration and incubation times were optimized for the maximal signal-to-background while maintaining initial velocity conditions at a fixed substrate concentration. The final concentration of the enzyme in the assay was 75 pM. Final substrate (Ub-Rh110; Ubiquitin-Rhodamine 110, R&D Systems #U-555) concentration was 25 nM with [Ub-Rh110]<<Km. 5 μL of 2× enzyme was added to assay plates (pre-stamped with compound) preincubated with USP28 for 30 minutes and then 5 μL of 2×Ub-Rh110 was added to assay plates. Plates were incubated stacked for 20 minutes at room temperature before 5 μL of stop solution was added (final concentration of 10 mM citric acid (Sigma, 251275-500G)). Fluorescence was read on the Envision (Excitation at 485 nm and Emission at 535 nm; Perkin Elmer) or on the PheraSTAR (Excitation at 485 nm and Emission at 535 nm; BMG Labtech).
For assay formats Example A-1(a), A-1(b), and A-2, data were reported as percent inhibition compared with control wells based on the following equation: % inh=1−((FLU−AveLow)/(AveHigh−AveLow)) where FLU=measured Fluorescence, AveLow=average Fluorescence of no enzyme control (n=16), and AveHigh=average Fluorescence of DMSO control (n=16). IC50 values were determined by curve fitting of the standard 4 parameter logistic fitting algorithm included in the Activity Base software package: IDBS XE Designer Model 205. Data is fitted using the Levenburg Marquardt algorithm.

For `Cc1ccc2c(N)c(C(=O)N[C@H]3COc4cc(N5CCNCC5)ccc4C3)sc2n1` (single isomer, unassigned) [Example 1-1], the “USP28 A-1(b) IC50 range” value is “+++ (0.05-0.2 μM)”.
Next, `Cc1ccc2c(N)c(C(=O)N[C@@H]3COc4cc(N5CCNCC5)ccc4C3)sc2n1` (single isomer, unassigned) [Example 1-2]: “+ (>2 μM)”; `Cc1ccc2c(N)c(C(=O)N[C@H]3COc4cc(N5CC6CCC(C5)N6)ccc4C3)sc2n1` (single isomer, unassigned) [Example 1-3]: “+++ (0.05-0.2 μM)”.
Consider `Cc1ccc2c(N)c(C(=O)N[C@@H]3COc4cc(N5CC6CCC(C5)N6)ccc4C3)sc2n1` (single isomer, unassigned) [Example 1-4], for which the “USP28 A-1(b) IC50 range” value was “++ (0.2-2 μM)”.
On to `Cc1ccc2c(N)c(C(=O)N[C@H]3COc4cc(N5CC6CCCC(C5)N6)ccc4C3)sc2n1` (single isomer, unassigned) [Example 1-5], for which the “USP28 A-1(b) IC50 range” value is on record as “++++ (0.001-0.05 μM)”.
On to `Cc1ccc2c(N)c(C(=O)N[C@@H]3COc4cc(N5CC6CCCC(C5)N6)ccc4C3)sc2n1` (single isomer, unassigned) [Example 1-6], for which the “USP28 A-1(b) IC50 range” value is “++ (0.2-2 μM)”.
Consider `Cc1ccc2c(N)c(C(=O)N[C@H]3COc4cc(N5CCN[C@H](C)[C@@H]5C)ccc4C3)sc2n1` (single isomer, unassigned) [Example 1-9], for which the “USP28 A-1(b) IC50 range” value was “++ (0.2-2 μM)”.
As for `Cc1ccc2c(N)c(C(=O)N[C@@H]3COc4cc(N5CCN[C@H](C)[C@@H]5C)ccc4C3)sc2n1` (single isomer, unassigned) [Example 1-10], the “USP28 A-1(b) IC50 range” value is “++ (0.2-2 μM)”.
With `Cc1ccc2c(N)c(C(=O)N[C@H]3COc4cc(N5CCN[C@H](C)[C@H]5C)ccc4C3)sc2n1` (single isomer, unassigned) [Example 1-11], the “USP28 A-1(b) IC50 range” value was “++++ (0.001-0.05 μM)”.
For `Cc1ccc2c(N)c(C(=O)N[C@@H]3COc4cc(N5CCN[C@H](C)[C@H]5C)ccc4C3)sc2n1` (single isomer, unassigned) [Example 1-12], the “USP28 A-1(b) IC50 range” value is “++++ (0.001-0.05 μM)”.
Regarding `Cc1ccc2c(N)c(C(=O)N[C@H]3COc4cc(N5CCN[C@@H](C)[C@@H]5C)ccc4C3)sc2n1` (single isomer, unassigned) [Example 1-13], the “USP28 A-1(b) IC50 range” value is on record as “++ (0.2-2 μM)”.
With `Cc1ccc2c(N)c(C(=O)N[C@@H]3COc4cc(N5CCN[C@@H](C)[C@@H]5C)ccc4C3)sc2n1` (single isomer, unassigned) [Example 1-14], the “USP28 A-1(b) IC50 range” value is on record as “++ (0.2-2 μM)”.
Next, `Cc1nc2sc(C(=O)N[C@H]3COc4cc(N5CCNCC5)ccc4C3)c(N)c2cc1F` (single isomer, unassigned) [Example 1-15]: “+++ (0.05-0.2 μM)”; `Cc1nc2sc(C(=O)N[C@@H]3COc4cc(N5CCNCC5)ccc4C3)c(N)c2cc1F` (single isomer, unassigned) [Example 1-16]: “+ (>2 μM)”.
Consider `Nc1c(C(=O)N[C@H]2COc3cc(N4CC5CCC(C4)N5)ccc3C2)sc2ncc(F)cc12` (single isomer, unassigned) [Example 1-17], for which the “USP28 A-1(b) IC50 range” value was “++ (0.2-2 μM)”.
`Nc1c(C(=O)N[C@@H]2COc3cc(N4CC5CCC(C4)N5)ccc3C2)sc2ncc(F)cc12` (single isomer, unassigned) [Example 1-18]: the “USP28 A-1(b) IC50 range” value was “+ (>2 μM)”.
Under `Cc1cnc2c(N)c(C(=O)N[C@H]3COc4cc(N5CCNCC5)ccc4C3)sc2n1` (single isomer, unassigned) [Example 1-21] stands “++ (0.2-2 μM)”; under `Cc1cnc2c(N)c(C(=O)N[C@@H]3COc4cc(N5CCNCC5)ccc4C3)sc2n1` (single isomer, unassigned) [Example 1-22], “+ (>2 μM)”.
Regarding `CCn1ccc2cc(C(=O)N[C@@H]3COc4cc(N5CC6CCC(C5)N6)ccc4C3)cnc21` (single isomer, unassigned) [Example 1-27], the “USP28 A-1(b) IC50 range” value is given as “+ (>2 μM)”.
With `CCn1ccc2cc(C(=O)N[C@H]3COc4cc(N5CC6CCC(C5)N6)ccc4C3)cnc21` (single isomer, unassigned) [Example 1-28], the “USP28 A-1(b) IC50 range” value is listed as “+++ (0.05-0.2 μM)”.
Consider `Cc1ccc2c(N)c(C(=O)N[C@@H]3COc4cc(N5CC6CCC(C5)N6)cc(F)c4C3)sc2n1` (single isomer, unassigned) [Example 1-30], for which the “USP28 A-1(b) IC50 range” value was “+ (>2 μM)”.
In the case of `Cc1ccc2c(N)c(C(=O)N[C@H]3COc4cc(N5CCNCC5)c(OC(F)(F)F)cc4C3)sc2n1` (single isomer, unassigned) [Example 1-31], the “USP28 A-1(b) IC50 range” value was “+ (>2 μM)”.
With `Cc1ccc2c(N)c(C(=O)N[C@@H]3COc4cc(N5CCNCC5)c(OC(F)(F)F)cc4C3)sc2n1` (single isomer, unassigned) [Example 1-32], the “USP28 A-1(b) IC50 range” value was “++ (0.2-2 μM)”.
For the compound `Cc1nc2sc(C(=O)N[C@H]3COc4cc(N5CCNCC5)cc(F)c4C3)c(N)c2s1` (single isomer, unassigned) [Example 1-37], the “USP28 A-1(b) IC50 range” value is on record as “+ (>2 μM)”.
For `Cc1nc2sc(C(=O)N[C@@H]3COc4cc(N5CCNCC5)cc(F)c4C3)c(N)c2s1` (single isomer, unassigned) [Example 1-38], the “USP28 A-1(b) IC50 range” value is on record as “++ (0.2-2 μM)”.
With `Cc1nc2sc(C(=O)N[C@H]3COc4cc(N5CC6CCC(C5)N6)cc(F)c4C3)c(N)c2s1` (single isomer, unassigned) [Example 1-39], the “USP28 A-1(b) IC50 range” value is “++ (0.2-2 μM)”.
In the case of `Cc1nc2sc(C(=O)N[C@@H]3COc4cc(N5CC6CCC(C5)N6)cc(F)c4C3)c(N)c2s1` (single isomer, unassigned) [Example 1-40], the “USP28 A-1(b) IC50 range” value is given as “+ (>2 μM)”.
As for `Cc1ccc2c(N)c(C(=O)N[C@@H]3COc4cc(N5CC6CC(C5)N6)cc(F)c4C3)sc2n1` (single isomer, unassigned) [Example 1-41], the “USP28 A-1(b) IC50 range” value was “+++ (0.05-0.2 μM)”.
